Laboratory results: patent publication EP1210336B1, “SUBSTITUTED BENZIMIDAZOLES AS NON-NUCLEOSIDE INHIBITORS OF REVERSE TRANSCRIPTASE” (THE UNITED STATES OF AMERICA, as represented by the …, priority 1999, dated 2001)
“And” between values parts separate entries of the source, which are not always exact repeats. Identical values can stand only once. Like-named read-outs stand apart in the source and are kept apart here.

Key:
HIV-1 WT RT [1] = molecular target: T1, HIV-1 WT RT (Human immunodeficiency virus type 1 group M subtype B, UniProt P03366); details: reported by Pauwels et al. (TIBO) and Buckheit et al. (thiazolobenzimidazole); read-out: IC50 for rC:dG; cited from earlier work
T1 construct: purified RT protein (0.015 mg/mL) was incubated in a 100 µL reaction mixture

[2] = tested on: HIV-1 isolate 4xAZT/L100I; experiment: Cytopathic cell killing assay, cross-resistance profile, infected MT-4 cells; type: cell-based
Experimental: The various HIV isolates tested in the Figures are those corresponding to wild-type virus (NL4-3) and the other strains listed by their RT mutations. The three 4xAZT isolates included in the Figures represent AZT drug-resistant variants. […]
Briefly, in this method cells (e.g., the CEM-SS cell line, available from the NIAID AIDS Research and Reference Program [ARRRP]) were seeded at a density of 5 x 10^3 cells/well, into the wells of a 96-well microtiter plate. The cells were then infected with HIV virus (either mutant or WT), at a multiplicity of infection (MOI) previously determined to provide complete cell killing by 6 days of culture post-infection (e.g., MOI of 0.01-0.05). Each of the HIV isolates was pre-titered to induce equivalent levels of infection based on cell killing or virus production, prior to their use in these assays. A range of test compound concentrations was added to the wells in triplicate (e.g., serial half-log dilutions) to evaluate inhibition of HIV infection. Controls for each assay included drug controls (drug colorimetric control wells), drug cytotoxicity control wells (cells with drug), virus control wells (cells with virus), and cell viability controls (cells only). Positive control drugs (e.g., AZT and ddC) were also run in parallel.
After six days of incubation at 37°C, cell viability was determined spectrophotometrically at 450 nm for each well, using the metabolic reduction of XTT to a soluble colored formazan. (See, Gartner and Popovic, "Virus Isolation and Production, in Aldovini and Walker (eds.), Techniques in HIV Research, Stockton Press, NY, pp. […] [1991]; and Nara and Fischinger, "Quantitative Infectivity Assay for HIV-1 and HIV-2," Nature 332:469-470 [1988]).
The in vitro therapeutic index (TI50) was defined as the fold-difference between the EC50 and IC50.

NL4-3 (WT) = experiment: as above; type: cell-based, HIV-1
Outline: (§1)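 XTT formazan absorbance (450 nm) after 6 days at 37°C measured survival of HIV-1-infected MT-4 cells treated with half-log compound dilutions in triplicate. Viruses were pre-titered to equivalent infection levels and used at an MOI killing all cells by day 6.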

HIV-1 variant V108I = experiment: as above; type: cell-based
Outline: as §1

HIV-1 isolate 4xAZT = experiment: as above; type: cell-based
Outline: as §1

HIV-1 variant V179D = experiment: as above; type: cell-based
Outline: as §1

HIV-1 variant L100I = experiment: as above; type: cell-based
Outline: as §1

HIV-1 variant K103N = experiment: as above; type: cell-based; details: isolate K103N
Outline: as §1

HIV-1 variant V106A = experiment: as above; type: cell-based
Outline: as §1

HIV-1 variant L74V = experiment: as above; type: cell-based
Outline: as §1

HIV-1 variant A98G = experiment: as above; type: cell-based
Outline: as §1

HIV-1 variant K101E = experiment: as above; type: cell-based
Outline: as §1

[3] = tested on: HIV-1 isolate 4xAZT/Y181C; experiment: as above; type: cell-based
Outline: as §1

HIV-1 variant Y181C = experiment: as above; type: cell-based
Outline: as §1

HIV-1 variant Y188C = experiment: as above; type: cell-based
Outline: as §1

HIV-1 WT RT [4] = molecular target: T1, HIV-1 WT RT; experiment: biochemical
WT virus (NL4-3) = experiment: microbe, parasite or virus in culture; type: cell-based, HIV-1
Outline: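 CEM-SS cells (5 x 10^3/well) infected with HIV-1 at an MOI giving complete killing by day 6 (e.g., 0.01-0.05), with serial half-log compound dilutions in triplicate. After 6 days at 37°C, viability read by XTT reduction at 450 nm. CIC50 derived from protection against cytopathic killing.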

HIV-1 variant M184l = experiment: Cytopathic cell killing assay, cross-resistance profile, infected MT-4 cells; type: cell-based
Outline: as §1

HIV-1 variant Y188H = experiment: as above; type: cell-based
Outline: as §1

[5] = Human immunodeficiency virus 1, NL43, MT4, Table 10 (values in µM), isolate NL4-3 (WT)
[6] = Human immunodeficiency virus 1, MT4, Table 10 (values in µM), isolate V108l
[7] = Human immunodeficiency virus 1, MT4, Table 10 (values in µM), isolate L1001
[8] = Human immunodeficiency virus 1, MT4, Table 10 (values in µM)
[9] = Human immunodeficiency virus 1, MT4, Table 10 (values in µM), isolate K101E
[10] = Human immunodeficiency virus 1, MT4

CC1Cn2c(=O)[nH]c3cccc(c32)CN1 (centres unmarked) [TIBO, 4,5,6,7-tetrahydro-5-methylimidazo[4,5,1-jk][1,4]benzodiazepin-2(1H)-one, reference compound]
IC50 (HIV-1 WT RT [1]): 60 nM | EC50 ([2]; Human immunodeficiency virus 1, MT4, Table 4, isolate 4xAZT/L.1001): > 17400 nM | EC50 ([2]; Human immunodeficiency virus 1, MT4, Table 9, isolate 4XAZT /L1001): > 20000 nM | EC50 (NL4-3 (WT); Human immunodeficiency virus 1, NL43, MT4, Table 4, isolate NL4-3 (WT)): 0.3 µM | EC50 (NL4-3 (WT); Human immunodeficiency virus 1, NL43, MT4, Table 9, isolate NL4.3): 0.3 µM | EC50 (NL4-3 (WT); [5]): 0.3 µM | EC50 (HIV-1 variant V108I; Human immunodeficiency virus 1, MT4, Table 4, isolate V108I): 2.4 µM | EC50 (HIV-1 variant V108I; Human immunodeficiency virus 1, MT4, Table 9, isolate V1081): 2.4 µM | EC50 (HIV-1 variant V108I; [6]): 2.4 µM | EC50 (HIV-1 isolate 4xAZT; Human immunodeficiency virus 1, MT4, Table 4, isolate 4xAZT): 300 nM | EC50 (HIV-1 isolate 4xAZT; Human immunodeficiency virus 1, MT4, Table 9, isolate 4XAZT): 300 nM | EC50 (HIV-1 variant V179D; Human immunodeficiency virus 1, MT4, Table 4, isolate V179D): 6200 nM | EC50 (HIV-1 variant V179D; Human immunodeficiency virus 1, MT4, Table 9, isolate V179D): 6200 nM | EC50 (HIV-1 variant L100I; Human immunodeficiency virus 1, MT4, Table 4, isolate L1001): 17.4 µM | EC50 (HIV-1 variant L100I; Human immunodeficiency virus 1, MT4, Table 9, isolate L1001): > 10 µM | EC50 (HIV-1 variant L100I; [7]): 17.4 µM | EC50 (HIV-1 variant K103N; Human immunodeficiency virus 1, MT4, Table 4): 17.4 µM | EC50 (HIV-1 variant K103N; Human immunodeficiency virus 1, MT4, Table 9): > 10 µM | EC50 (HIV-1 variant K103N; [8]): 17.4 µM | EC50 (HIV-1 variant V106A; Human immunodeficiency virus 1, MT4, Table 4, isolate V106A): 12500 nM | EC50 (HIV-1 variant V106A; Human immunodeficiency virus 1, MT4, Table 9, isolate V106A): > 10000 nM | EC50 (HIV-1 variant L74V; Human immunodeficiency virus 1, MT4, Table 4, isolate L74V): 200 nM | EC50 (HIV-1 variant L74V; Human immunodeficiency virus 1, MT4, Table 9, isolate 1.74 V): 200 nM | EC50 (HIV-1 variant A98G; Human immunodeficiency virus 1, MT4, Table 4, isolate A98G): 11000 nM | EC50 (HIV-1 variant A98G; Human immunodeficiency virus 1, MT4, Table 9, isolate A98G): 11000 nM | EC50 (HIV-1 variant K101E; Human immunodeficiency virus 1, MT4, Table 4, isolate K101E): 17.4 µM | EC50 (HIV-1 variant K101E; Human immunodeficiency virus 1, MT4, Table 9, isolate KIOIE): > 10 µM | EC50 (HIV-1 variant K101E; [9]): 17.4 µM | EC50 ([3]; Human immunodeficiency virus 1, MT4, Table 4, isolate 4xAZT/Y181C): 2000 nM | EC50 ([3]; Human immunodeficiency virus 1, MT4, Table 9, isolate 4XAZT /Y181C): 2000 nM | EC50 (HIV-1 variant Y181C; Human immunodeficiency virus 1, MT4, Table 4, isolate Y181C): 4.2 µM | EC50 (HIV-1 variant Y181C; Human immunodeficiency virus 1, MT4, Table 9, isolate Y181C): 4.2 µM | EC50 (HIV-1 variant Y181C; Human immunodeficiency virus 1, MT4, Table 10 (values in µM), isolate Y181C): 4.2 µM | EC50 (HIV-1 variant Y188C; Human immunodeficiency virus 1, MT4, Table 4, isolate Y188C): > 17.4 µM | EC50 (HIV-1 variant Y188C; Human immunodeficiency virus 1, MT4, Table 9, isolate Y188C): > 20 µM | EC50 (HIV-1 variant Y188C; Human immunodeficiency virus 1, MT4, Table 10 (values in µM), isolate Y188C): > 17.4 µM

4-amino-1-(2,6-difluorobenzyl)-2-(2,6-difluorophenyl)benzimidazole [compound 53]
IC50 (HIV-1 WT RT [4]; HIV-1 WT RT, read-out: IC50): 280 nM | IC50 (HIV-1 WT RT [4]; Table 7, HIV-1 WT RT, read-out: IC50): 280 nM | %inhibn (1µM) (HIV-1 WT RT [4]; Table 7, WT HIV-1 RT, 1 µM drug): 69% | IC50 (HIV-1 WT RT [4]; Table 11, WT RT, read-out: IC50): 280 nM | EC50 ([2]; Table 8, isolate 4XA7T L 1001, read-out: EC50): 300 nM | EC50 (NL4-3 (WT); Table 8, isolate N1.43, read-out: EC50): 0.5 µM | EC50 (NL4-3 (WT); Table 10 (values in µM), isolate NL4-3 (WT), listed as NH2, read-out: EC50): 0.68 µM and 0.4 µM | EC50 (WT virus (NL4-3); Table 7, concentration reducing cell killing or virus production by 50%, HIV-1 WT, read-out: EC50): 460 nM | EC50 (WT virus (NL4-3); Table 11, CEMSS/NL4-3, NRVC = reduction in viral CPE not seen (footnote), read-out: EC50): 460 nM | EC50 (HIV-1 variant V108I; Table 8, isolate V1081, read-out: EC50): > 20 µM | EC50 (HIV-1 isolate 4xAZT; Table 8, isolate 4XAZT, read-out: EC50): 200 nM | EC50 (HIV-1 variant M184l; Table 10 (values in µM), isolate M184l, read-out: EC50): 0.65 µM | EC50 (HIV-1 variant Y188H; Table 10 (values in µM), isolate Y188H, read-out: EC50): > 50 µM | EC50 (HIV-1 variant V179D; Table 8, isolate V179D, read-out: EC50): 6000 nM | EC50 (HIV-1 variant L100I; Table 8, isolate 1.1001, read-out: EC50): 1.3 µM | EC50 (HIV-1 variant K103N; Table 8, read-out: EC50): > 20 µM | EC50 (HIV-1 variant V106A; Table 8, isolate V 106A, read-out: EC50): > 20000 nM | EC50 (HIV-1 variant L74V; Table 8, isolate 1.74V, read-out: EC50): 300 nM | EC50 (HIV-1 variant A98G; Table 8, isolate A9SG, read-out: EC50): 1500 nM | EC50 (HIV-1 variant K101E; Table 8, isolate K101E, read-out: EC50): > 20 µM | EC50 ([3]; Table 8, isolate 4XAZT /Y181C, read-out: EC50): > 10000 nM | EC50 (HIV-1 variant Y188C; Table 8, isolate Y 188C, read-out: EC50): 2.7 µM | EC50 (HIV-1 variant Y188C; Table 10 (values in µM), isolate Y188C, read-out: EC50): 2 µM

CCc1cccc2c1nc(-c1c(F)cccc1F)n2Cc1c(F)cccc1F [compound 47, 1-(2,6-difluorobenzyl)-2-(2,6-difluorophenyl)-4-ethylbenzimidazole]
IC50 (HIV-1 WT RT [4]): 17500 nM | inhibition at 1 µM (HIV-1 WT RT [4]; read-out: %inhibn (1µM)): 50% | EC50 [2, 10]: 600 nM | EC50 (NL4-3 (WT); Human immunodeficiency virus 1, NL43, MT4, Table 8, isolate N1.43): 1.1 µM | EC50 (NL4-3 (WT); [5]): 0.9 µM | EC50 (WT virus (NL4-3); Human immunodeficiency virus 1, NL43, CEM-SS): 820 nM | EC50 (HIV-1 variant V108I; Human immunodeficiency virus 1, MT4, Table 8, isolate V1081): 3 µM | EC50 (HIV-1 variant V108I; [6]): > 50 µM | EC50 (HIV-1 isolate 4xAZT; [10]): 1000 nM | EC50 (HIV-1 variant M184l; [10]): 0.96 µM | EC50 (HIV-1 variant Y188H; [10]): 13.2 µM | EC50 (HIV-1 variant V179D; [10]): 1800 nM | EC50 (HIV-1 variant L100I; Human immunodeficiency virus 1, MT4, Table 8, isolate 1.1001): 0.6 µM | EC50 (HIV-1 variant L100I; [7]): 2.48 µM | EC50 (HIV-1 variant K103N; Human immunodeficiency virus 1, MT4, Table 8): > 20 µM | EC50 (HIV-1 variant K103N; [8]): > 50 µM | EC50 (HIV-1 variant V106A; [10]): > 20000 nM | EC50 (HIV-1 variant L74V; [10]): 1500 nM | EC50 (HIV-1 variant A98G; [10]): 8000 nM | EC50 (HIV-1 variant K101E; Human immunodeficiency virus 1, MT4, Table 8, isolate K101E): > 20 µM | EC50 (HIV-1 variant K101E; [9]): > 50 µM | EC50 [3, 10]: > 20000 nM | EC50 (HIV-1 variant Y181C; [10]): 7.18 µM | EC50 (HIV-1 variant Y188C; [10]): 5.5 µM
